What was measured:
[1] = target: DGKzeta (hDGKzeta(1-928)-N-His) (Homo sapiens (Human), UniProt Q13574); assay: In vitro DGK inhibition assay, ADP-Glo (in house), DGKzeta; assay type: biochemical; conditions: DLG liposomes, 50 μM ATP, 2 nM enzyme, 1 hour reaction
Method: (§1) DGK α and ζ kinases use ATP to phosphorylate the substrate 1,2-dilauroyl-sn-glycerol (DLG, incorporated in the liposomes). ATP is converted to ADP as a result of this enzymatic reaction.
(§2) After the kinase reaction, an ATP-depletion reagent is added to terminate the kinase reaction and deplete any remaining ATP, leaving only ADP. Second, a detection reagent is added to simultaneously convert ADP to ATP and allow the newly synthesized ATP to be converted to light using a coupled luciferase/luciferin reaction.
(§3) Purification of both enzymes was performed as previously described by Takahashi et al., PeerJ, 2018 (Takahashi, D.; Sakane, F. Expression and purification of human diacylglycerol kinase alpha from baculovirus-infected insect cells for structural studies. PeerJ 2018, 6, No. e5449).
(§4) A concentrated liposome solution was prepared in assay buffer without DTT and BSA: 2 mM of DLG in 21 mM of total liposome (2 mM DLG/8 mM PS/11 mM PC). The reaction mixtures contain the assay buffer with a final DLG concentration of 125 uM ATP concentrations of 25 μM (for DGKA assay) or 50 μM (for DGKZ assay). The reactions were started by addition of DGK α and ζ kinases at 4 nM and 2 nM final concentrations, respectively. After 1 hour reaction, the amount of ADP formed was detected with the ADP-Glo kinase assay (Promega) according to the manufacturer instructions. Compounds were added in 11-points dose response, starting at […], 1:3 dilutions, with a final DMSO concentration of 2%. The multidrop combi was used as a liquid handler and luminescence was read with 0.5 s by the envision reader (PE).

[2] = target: DGKalpha (hDGKalpha(1-735)-N-His) (Homo sapiens (Human), UniProt P23743); assay: In vitro DGK inhibition assay, ADP-Glo (in house), DGKalpha; assay type: biochemical; conditions: DLG liposomes, 25 μM ATP, 4 nM enzyme, 1 hour reaction
Method: as §1, §2, §3, §4

primary human T-cells [3] = assay: T-cell proliferation assay (CellTiter-Glo); assay type: cell-based; conditions: CD3 condition; for Emax proliferation (% activation): 5 days, 20 μM reference compound A1 = 100%; for EC50: proliferation after 5 days, CellTiter-Glo, read-out: Tcell Proliferation CD3 EC50
primary human T-cells [4] = assay: IL2 secretion measurements in CD3-stimulated T-cells; assay type: cell-based; conditions: CD3 condition; for Emax IL2 (% activation): 24 hours, 20 μM reference compound A1 = 100%; for EC50: IL2 secretion after 24 hours, read-out: Tcell IL2 CD3 EC50
How it was run: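 Expanded primary human T-cells (100 k/well, RPMI + 5% human serum) on plate-bound anti-CD3 (donor-titrated) or PBS counter-screen wells, 5–6 pt dose response from 20 or 10 μM top (dilution factor 3.333), 0.2% DMSO final. IL-2 in 24 h supernatant by ProQuantum immunoassay or ELISA. Normalised to DMSO (0%) and 20 μM reference A1 (100%); EC50 and Emax from sigmoidal fit.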

Sequence of DGKzeta (hDGKzeta(1-928)-N-His) (Q13574 whole entry): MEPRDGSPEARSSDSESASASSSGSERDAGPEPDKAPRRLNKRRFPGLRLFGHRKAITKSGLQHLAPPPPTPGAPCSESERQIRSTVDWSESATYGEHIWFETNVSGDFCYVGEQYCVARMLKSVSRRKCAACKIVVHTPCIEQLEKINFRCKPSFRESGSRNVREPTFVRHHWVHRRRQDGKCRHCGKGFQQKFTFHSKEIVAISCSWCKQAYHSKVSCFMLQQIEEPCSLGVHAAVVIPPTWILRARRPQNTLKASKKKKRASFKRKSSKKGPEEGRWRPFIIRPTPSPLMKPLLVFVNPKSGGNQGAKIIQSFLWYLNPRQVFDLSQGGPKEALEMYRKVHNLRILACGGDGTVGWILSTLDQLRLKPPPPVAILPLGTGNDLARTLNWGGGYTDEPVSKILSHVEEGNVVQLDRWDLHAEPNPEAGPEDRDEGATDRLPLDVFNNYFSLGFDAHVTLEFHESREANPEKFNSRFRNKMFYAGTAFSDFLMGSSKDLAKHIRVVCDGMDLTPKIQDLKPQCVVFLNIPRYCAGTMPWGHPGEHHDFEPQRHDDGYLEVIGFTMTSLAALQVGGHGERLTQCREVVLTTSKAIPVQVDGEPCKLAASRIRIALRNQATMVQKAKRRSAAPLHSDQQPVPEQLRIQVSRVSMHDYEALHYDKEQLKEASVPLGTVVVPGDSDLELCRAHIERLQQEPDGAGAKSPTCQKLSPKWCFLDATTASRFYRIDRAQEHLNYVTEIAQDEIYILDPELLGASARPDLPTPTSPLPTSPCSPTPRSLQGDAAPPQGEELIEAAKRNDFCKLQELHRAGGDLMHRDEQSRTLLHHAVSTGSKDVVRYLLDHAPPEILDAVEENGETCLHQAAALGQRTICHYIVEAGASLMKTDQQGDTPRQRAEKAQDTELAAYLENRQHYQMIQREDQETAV
Sequence of DGKalpha (hDGKalpha(1-735)-N-His) (P23743 whole entry): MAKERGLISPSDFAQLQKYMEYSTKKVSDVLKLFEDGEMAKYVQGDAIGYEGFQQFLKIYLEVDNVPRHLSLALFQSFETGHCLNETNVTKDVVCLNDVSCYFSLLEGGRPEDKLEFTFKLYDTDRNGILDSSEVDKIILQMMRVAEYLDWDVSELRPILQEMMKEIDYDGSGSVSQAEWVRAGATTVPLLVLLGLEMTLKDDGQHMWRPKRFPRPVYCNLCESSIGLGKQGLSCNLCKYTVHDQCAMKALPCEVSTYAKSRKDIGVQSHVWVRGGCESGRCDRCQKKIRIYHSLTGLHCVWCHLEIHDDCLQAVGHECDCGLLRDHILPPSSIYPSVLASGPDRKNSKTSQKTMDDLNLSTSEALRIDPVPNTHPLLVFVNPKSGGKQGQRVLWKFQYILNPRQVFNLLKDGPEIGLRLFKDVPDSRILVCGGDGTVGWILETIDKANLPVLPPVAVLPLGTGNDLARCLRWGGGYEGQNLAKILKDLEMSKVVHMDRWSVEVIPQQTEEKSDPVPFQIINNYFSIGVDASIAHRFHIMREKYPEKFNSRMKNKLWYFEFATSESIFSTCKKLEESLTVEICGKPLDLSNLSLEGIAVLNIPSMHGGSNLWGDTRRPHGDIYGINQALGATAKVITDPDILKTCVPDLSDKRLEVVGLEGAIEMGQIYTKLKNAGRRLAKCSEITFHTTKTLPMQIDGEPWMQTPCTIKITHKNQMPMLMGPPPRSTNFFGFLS

SMILES	IC50 [1] [µM]	IC50 [2] [µM]	Emax proliferation (% activation) (primary human T-cells [3])	EC50 (primary human T-cells [3]; Homo sapiens, T-cell, 120 h) [µM]	Emax IL2 (% activation) (primary human T-cells [4])	EC50 (primary human T-cells [4]; Homo sapiens, T-cell) [µM]	EC50 (primary human T-cells [3]) [µM]	EC50 (primary human T-cells [4]) [µM]
N[C@H]1CS(=O)(=O)c2cc(F)c(-c3nncc(N4CCC(F)(F)CC4)n3)cc2N(Cc2ccc(Cl)cc2)C1=O [Example 17, (3R)-3-amino-5-[(4-chlorophenyl)methyl]-7-[5-(4,4-difluoro-1-piperidyl)-1,2,4-triazin-3-yl]-8-fluoro-1,1-dioxo-2,3-dihydro-1λ6,5-benzothiazepin-4-one]	0.65	7.88	104	0.342	62	0.449		
CC(C)(C)c1cc(-c2cc3c(cc2F)S(=O)(=O)C[C@H](N)C(=O)N3Cc2ccc(Cl)cc2)cnn1 [Example 31, (3R)-3-amino-7-(6-tert-butylpyridazin-4-yl)-5-[(4-chlorophenyl)methyl]-8-fluoro-1,1-dioxo-2,3-dihydro-1λ6,5-benzothiazepin-4-one]	3.85	35.2	112	0.501	80	1.09		
CS(=O)(=O)C(CCCl)c1cnnc(-c2cc3c(cc2F)S(=O)(=O)C[C@H](N)C(=O)N3Cc2ccc(Cl)cc2)n1 (stereo partly drawn) [Example 20, (3R)-3-amino-7-[5-(3-chloro-1-methylsulfonyl-propyl)-1,2,4-triazin-3-yl]-5-[(4-chlorophenyl)methyl]-8-fluoro-1,1-dioxo-2,3-dihydro-1λ6,5-benzothiazepin-4-one]	1.73	1.66	87	9.11	39	> 10		
COC(=O)N1CC2CC(c3cnnc(-c4cc5c(cc4F)S(=O)(=O)C[C@H](N)C(=O)N5Cc4ccc(Cl)cc4)n3)(C2)C1 [Example 18, methyl 1-[3-[(3R)-3-amino-5-[(4-chlorophenyl)methyl]-8-fluoro-1,1,4-trioxo-2,3-dihydro-1λ6,5-benzothiazepin-7-yl]-1,2,4-triazin-5-yl]-3-azabicyclo[3.1.1]heptane-3-carboxylate]	1.13	4.59	79	2.72	61	1.83		
N[C@H]1CS(=O)(=O)c2cc(F)c(-c3cncc(N4CCOCC4)c3)cc2N(Cc2ccc(-c3noc(C(F)(F)F)n3)cc2)C1=O [Example 21, (3R)-3-amino-8-fluoro-1,1-diketo-7-(5-morpholino-3-pyridyl)-5-[4-[5-(trifluoromethyl)-1,2,4-oxadiazol-3-yl]benzyl]-2,3-dihydro-1λ6,5-benzothiazepin-4-one]	8.77	31	140	3.76	131	6.78		
N[C@H]1CS(=O)(=O)c2cc(F)c(-c3cnnc(OCC(F)(F)F)c3)cc2N(Cc2ccc(-c3noc(C(F)(F)F)n3)cc2)C1=O [Example 33, (3R)-3-amino-8-fluoro-1,1-dioxo-7-[6-(2,2,2-trifluoroethoxy)pyridazin-4-yl]-5-[[4-[5-(trifluoromethyl)-1,2,4-oxadiazol-3-yl]phenyl]methyl]-2,3-dihydro-1λ6,5-benzothiazepin-4-one]	20	22.2	103	0.298	154	2.23		
CC(C)(C)c1cc(-c2cc3c(cc2F)S(=O)(=O)C[C@@H](N)C(=O)N3Cc2ccc(-c3noc(C(F)(F)F)n3)cc2)cnn1 [Example 35]	17.2	19.9	132		480		1.04	3.13

Reference: patent publication US20250236617A1, “BICYCLIC TETRAHYDROTHIAZEPINE DERIVATIVES” (Hoffmann-La Roche Inc., priority 2022, published 2025)
